Results on three molecules are retold here after patent publication US6620423B2, “Use for pain management” (AstraZeneca AB, priority 1998, dated 2003).

Assay [1] concerns patients with myofascial pain syndrome (MPS). To be noted: bupivacaine 0.25%, lignocaine 1%, local injection, 107 patients; cited from earlier work.
The test system of assay [2] is patients with orofacial muscle (myofascial) pain, masseter muscle tender points. The assay can be described thus: VAS pain at maximal mouth opening after intramuscular tender point injection. Type of assay: in vivo, human. How it is done:
Ropivacaine hydrochloride 7.5 mg/ml solution for injection was used (Naropin®, Astra AB, Sweden). Ropivacaine was administered as a single dose intra-muscular tender point (TP) injection. Injection by means of one needle insertion per tender point was preceded by aspiration before infiltrating the study drug over the entire tender area. A standard disposable syringe with a 0.4 mm diameter needle was used. Injection rate was about 1 ml/30 sec. Injections were made at one occassion at a visit to the clinic. Follow-up data were obtained at a study end visit to the clinic 1 week after the injection. Ten patients (5 men and 5 women) whose age varied from 19 years to 69 years (mean 42.9 years of age) were included in this test. The duration of complaints ranged from 1 month up to 10 years (mean 26.5 months). All patients were subjected to unilateral injections of ropivacaine into tender points of the masseter muscle. Three patients received 1 ml, 5 patients received 2 ml, 1 patient received 3 ml and 1 patient received 4 ml of the study drug. (i) Pain on maximal mouth opening The patient rated their pain on a 100 mm visual analogue scale (VAS). On the VAS, 0 represents “no pain” and 100 represents “worst pain imaginable”. The primary efficacy variable was VAS pain score at maximal mouth opening. The patient was asked to open the mouth as much as possible and then they rated the experienced pain.

For assay [3] the test system is unchanged. The assay can be described thus: Frequency of pain episodes / freedom from muscular pain at follow-up. The format is in vivo, human. How it is done:
(§1) Ropivacaine hydrochloride 7.5 mg/ml solution for injection was used (Naropin®, Astra AB, Sweden). Ropivacaine was administered as a single dose intra-muscular tender point (TP) injection. Injection by means of one needle insertion per tender point was preceded by aspiration before infiltrating the study drug over the entire tender area. A standard disposable syringe with a 0.4 mm diameter needle was used. Injection rate was about 1 ml/30 sec. Injections were made at one occassion at a visit to the clinic. Follow-up data were obtained at a study end visit to the clinic 1 week after the injection. A case history information including the duration of the present orofacial muscle pain was collected. A clinical examination of the orofacial region including digital palpation of the temporomandibular joints and masticatory muscles. Ten patients (5 men and 5 women) whose age varied from 19 years to 69 years (mean 42.9 years of age) were included in this test. The duration of complaints ranged from 1 month up to 10 years (mean 26.5 months). All patients were subjected to unilateral injections of ropivacaine into tender points of the masseter muscle. Three patients received 1 ml, 5 patients received 2 ml, 1 patient received 3 ml and 1 patient received 4 ml of the study drug.

For assay [4] the test system is unchanged. As to the kind of experiment: VAS pain at rest (jaw at rest) after intramuscular tender point injection. The format is in vivo, human. How it is done: as §1, with “injection.” for “injection. A case history information including the duration of the present orofacial muscle pain was collected. A clinical examination of the orofacial region including digital palpation of the temporomandibular joints and masticatory muscles.”, “drug. (ii) Pain at rest The non-functional pain (jaw at rest) was also assessed by the patient on the VAS scale. This parameter was rated before the rating of pain on maximal mouth opening.” for “drug.”

The structures appear in SMILES notation. Structures can show the parent of a compound that is named as a salt.

Take `CCN(CC)CC(=O)Nc1c(C)cccc1C` [lignocaine]: the “Effect on pain compared between bupivacaine, lignocaine and saline” value in assay [1] was “No significant difference”.
For `CCCCN1CCCCC1C(=O)Nc1c(C)cccc1C` (stereo not shown) [bupivacaine], the “Effect on pain compared between bupivacaine, lignocaine and saline” value in assay [1] was “No significant difference”.
Consider `CCCN1CCCC[C@H]1C(=O)Nc1c(C)cccc1C` [ropivacaine, (S)-(−)-i-propyl-2′,6′-pipecoloxylidide hydrochloride], for which the “Pain at maximal jaw opening, 100 mm VAS, Follow-up, Max” value in assay [2] (10 patients, 7.5 mg/ml single i.m. injection, follow-up 1 week, baseline max 95) is given as 75 mm. For the same molecule, the “Pain at maximal jaw opening, 100 mm VAS, Follow-up, Mean” value in assay [2] (10 patients, 7.5 mg/ml single i.m. injection, follow-up 1 week, baseline mean 59.3, S.D. 32.34) is recorded as 27.3 mm. For the same molecule, in assay [2] (10 patients, 7.5 mg/ml single i.m. injection, follow-up 1 week, baseline min 8), the “Pain at maximal jaw opening, 100 mm VAS, Follow-up, Min” value was 0 mm. Moreover, the “Pain at maximal jaw opening, 100 mm VAS, Follow-up, Median” value in assay [2] (10 patients, 7.5 mg/ml single i.m. tender point injection (1-4 ml), follow-up 1 week, baseline median 59.5) came to 6 mm. For the same molecule, in assay [2] (baseline vs follow-up 1 week, result in words), the “VAS rated pain at maximal mouth opening, change as a result of the treatment” value is recorded as “dramatic reduction”. For the same molecule, the “Patients who became free or almost free of their muscular pain” value in assay [3] (FIG. 1, 10 patients treated) is 6 out of the 10. Further, in assay [3] (of 10 patients), the “Patients with pain at one occasion during the week prior to follow-up” value came to 1 patient and the “Patients with pain several times a week or every day at follow-up” value turned out to be 3 patients. In addition, the “Patients with not a single episode with pain during the week prior to follow-up” value in assay [3] (of 10 patients, at baseline 2 had pain every day, 8 several times per week) is 6 patients. Also, in assay [4] (10 patients, 7.5 mg/ml single i.m. injection, follow-up 1 week, baseline max 89), the “Pain at rest, 100 mm VAS, Follow-up, Max” value was determined as 16 mm. In assay [4] (10 patients, 7.5 mg/ml single i.m. injection, follow-up 1 week, baseline mean 33.3), the “Pain at rest, 100 mm VAS, Follow-up, Mean” value is recorded as 3.7 mm. For the same molecule, the “Pain at rest, 100 mm VAS, Follow-up, Median” value in assay [4] (10 patients, 7.5 mg/ml single i.m. injection, follow-up 1 week, baseline median 19.5) is 3.5 mm. Moreover, in assay [4] (10 patients, 7.5 mg/ml single i.m. injection, follow-up 1 week, baseline min 3), the “Pain at rest, 100 mm VAS, Follow-up, Min” value came out at 0 mm. In assay [4] (baseline vs follow-up, result in words), the “Pain at rest, change as the result of the treatment” value was “decreased significantly”.
